Assay results published in US20240034731A1, “AZA-QUINAZOLINE COMPOUNDS AND METHODS OF USE” (Iambic Therapeutics, Inc., priority 2022, published 2024).

Tests used:
[1] = target: CDK2/Cyclin E1 (Homo sapiens (Human), UniProt P24941); assay: CDK2/Cyclin E1 Full length ADP-Glo Kinase Assay; type: biochemical; settings: 20 uM ATP, read-out: CDK2/ CyclinE1 IC50
Summary of the method: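 Full-length human CDK2/cyclin E1 was preincubated 30 min at room temperature with inhibitor, then reacted 90 min with ATP-containing substrate solution. ADP formed was measured by ADP-Glo luminescence; IC50 from 4-parameter fit of fractional velocity versus inhibitor concentration.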

[2] = target: CDK1/Cyclin B1 (Homo sapiens (Human), UniProt P06493); assay: CDK1/Cyclin B1 ADP-Glo Kinase Assay; type: biochemical; settings: ADP-Glo, 80 uM ATP; read-out: CDK1 Cyclin B1 IC50
Sequence of CDK1/Cyclin B1 (P06493 whole entry): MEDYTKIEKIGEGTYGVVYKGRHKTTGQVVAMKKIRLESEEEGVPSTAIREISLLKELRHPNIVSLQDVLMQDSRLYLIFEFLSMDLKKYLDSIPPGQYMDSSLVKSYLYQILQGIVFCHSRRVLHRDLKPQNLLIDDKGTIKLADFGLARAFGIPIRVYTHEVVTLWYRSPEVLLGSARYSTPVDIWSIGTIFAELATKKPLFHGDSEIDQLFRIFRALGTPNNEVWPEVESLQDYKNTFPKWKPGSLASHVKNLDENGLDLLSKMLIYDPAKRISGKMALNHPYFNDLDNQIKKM
Sequence of CDK1/Cyclin B1 (P14635 whole entry partner): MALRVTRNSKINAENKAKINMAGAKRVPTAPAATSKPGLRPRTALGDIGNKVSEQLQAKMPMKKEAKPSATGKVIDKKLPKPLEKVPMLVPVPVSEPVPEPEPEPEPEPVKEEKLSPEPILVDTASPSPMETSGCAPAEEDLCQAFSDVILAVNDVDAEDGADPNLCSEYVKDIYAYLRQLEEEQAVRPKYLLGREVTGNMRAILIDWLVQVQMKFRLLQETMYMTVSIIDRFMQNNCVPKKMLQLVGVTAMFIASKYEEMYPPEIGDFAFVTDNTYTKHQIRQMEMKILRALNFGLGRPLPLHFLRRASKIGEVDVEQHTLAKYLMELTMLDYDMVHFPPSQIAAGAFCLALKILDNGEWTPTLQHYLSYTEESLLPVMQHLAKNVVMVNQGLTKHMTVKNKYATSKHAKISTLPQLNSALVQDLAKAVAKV
Summary of the method: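 Enzyme and inhibitor pre-incubated 30 min at room temperature before ATP/substrate addition; reaction run 90 min at room temperature. ADP formed measured by ADP-Glo luminescence; IC50 from a 4-parameter fit of fractional velocity versus inhibitor concentration.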

[3] = target: CDK4/Cyclin D1 (Homo sapiens (Human), UniProt P11802); assay: CDK4/Cyclin D1 CHEF Assay (AQT0258 peptide); type: biochemical; settings: 200 uM ATP, read-out: CDK4/ CyclinD1 AQT IC50
Sequence of CDK4/Cyclin D1 (P11802 whole entry): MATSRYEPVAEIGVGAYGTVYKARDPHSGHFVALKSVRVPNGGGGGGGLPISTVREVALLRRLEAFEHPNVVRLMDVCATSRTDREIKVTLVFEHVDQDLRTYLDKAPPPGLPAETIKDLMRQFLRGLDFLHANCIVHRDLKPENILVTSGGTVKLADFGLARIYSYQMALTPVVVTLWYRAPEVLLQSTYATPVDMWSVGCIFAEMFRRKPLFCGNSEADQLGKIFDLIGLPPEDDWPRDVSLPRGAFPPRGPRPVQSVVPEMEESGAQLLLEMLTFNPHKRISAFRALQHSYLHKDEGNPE
Sequence of CDK4/Cyclin D1 (P24385 whole entry partner): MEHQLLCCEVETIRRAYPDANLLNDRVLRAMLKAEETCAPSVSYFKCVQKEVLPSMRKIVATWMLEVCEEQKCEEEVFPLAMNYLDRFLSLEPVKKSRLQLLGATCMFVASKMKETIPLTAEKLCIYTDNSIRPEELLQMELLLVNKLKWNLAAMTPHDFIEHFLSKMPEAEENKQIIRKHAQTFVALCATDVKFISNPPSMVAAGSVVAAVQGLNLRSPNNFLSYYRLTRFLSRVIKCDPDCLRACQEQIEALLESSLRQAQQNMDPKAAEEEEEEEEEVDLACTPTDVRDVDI
Summary of the method: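 Sox-labelled peptide AQT0258 phosphorylation read as chelation-enhanced fluorescence (ex 360/em 485 nm) with Mg(II). Enzyme preincubated with inhibitor 30 min at 22°C, substrate added, 3 h at 22°C; IC50 from four-parameter fit of fractional velocity versus inhibitor concentration.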

[4] = target: CDK6/Cyclin D3 (Homo sapiens (Human), UniProt Q00534); assay: CDK6/Cyclin D3 ADP-Glo Kinase Assay; type: biochemical; settings: 100 uM ATP, read-out: CDK6/ CyclinD3 IC50
Sequence of CDK6/Cyclin D3 (Q00534 whole entry): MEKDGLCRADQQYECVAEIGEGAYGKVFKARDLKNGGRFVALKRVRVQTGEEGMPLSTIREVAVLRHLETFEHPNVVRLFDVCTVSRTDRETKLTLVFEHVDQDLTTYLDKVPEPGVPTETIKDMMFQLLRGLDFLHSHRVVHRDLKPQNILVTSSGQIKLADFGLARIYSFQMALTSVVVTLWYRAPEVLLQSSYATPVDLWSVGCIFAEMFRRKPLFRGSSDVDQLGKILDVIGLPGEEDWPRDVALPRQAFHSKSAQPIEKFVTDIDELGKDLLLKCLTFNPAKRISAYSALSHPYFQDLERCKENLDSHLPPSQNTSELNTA
Sequence of CDK6/Cyclin D3 (P30281 whole entry partner): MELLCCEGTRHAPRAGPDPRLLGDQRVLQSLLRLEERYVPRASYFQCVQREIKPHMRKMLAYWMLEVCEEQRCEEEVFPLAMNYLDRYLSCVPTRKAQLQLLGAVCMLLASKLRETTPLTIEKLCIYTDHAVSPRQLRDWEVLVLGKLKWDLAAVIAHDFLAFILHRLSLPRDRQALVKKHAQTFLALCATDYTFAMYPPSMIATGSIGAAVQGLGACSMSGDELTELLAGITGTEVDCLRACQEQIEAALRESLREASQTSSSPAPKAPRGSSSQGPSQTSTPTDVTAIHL
Summary of the method: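 Enzyme and inhibitor were pre-incubated for 30 min at room temperature before ATP/substrate was added. The kinase reaction ran 90 min at room temperature, and ADP formed was detected by ADP-Glo luminescence. IC50 was fitted with a 4-parameter equation to fractional velocity versus inhibitor concentration.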

[5] = test system: MCF-7 cells; assay: Cell Growth Inhibition, MCF-7 (CellTiterGlo, 6 days); type: cell-based; settings: Homo sapiens, MCF7, 144 h, MCF-7, 6-day treatment
Summary of the method: (§1)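 MCF-7 (ER+ breast adenocarcinoma) or CCNE1-amplified OVCAR-3 cells, 500/well in RPMI with 10% FBS, treated with half-log dilutions typically 10-10,000 nM for 6 days at 37 °C. CellTiterGlo 2.0 luminescence gave % growth inhibition versus control; IC50 by four-parameter variable-slope fit.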

[6] = test system: OVCAR-3 cells; assay: Cell Growth Inhibition, OVCAR-3 (CellTiterGlo, 6 days); type: cell-based; settings: Homo sapiens, 144 h, OVCAR-3, 6-day treatment
Summary of the method: as §1

Row | IC50 [1] | IC50 [2] | IC50 [3] | IC50 [4] | IC50 [5] | IC50 [6] | SMILES
1 | < 0.2 µM | > 2 µM | 0.5 to 2 µM | > 2 µM | > 2 µM | 0.5 to 2 µM | Cc1cc2cnc(Nc3cnn(CC4(N(C)C)CC4)c3)nc2c(N2CCC(C#N)(C3CC3)C2)n1 (stereo not drawn) [Compound 38, 3-cyclopropyl-1-(2-((1-((1-(dimethylamino)cyclopropyl)methyl)-1H-pyrazol-4-yl)amino)-6-methylpyrido[3,4-d]pyrimidin-8-yl)pyrrolidine-3-carbonitrile]
2 | < 0.2 µM | > 2 µM | < 0.2 µM | < 0.2 µM | 0.5 to 2 µM | 0.5 to 2 µM | Cc1cc2cnc(N[C@H]3CC[C@H](CN(C)C)CC3)nc2c(N2CCC3(C2)CC3(F)F)n1 (stereo partly drawn) [Compound 40, 8-(1,1-difluoro-5-azaspiro[2.4]heptan-5-yl)-N-((1r,4r)-4-((dimethylamino)methyl)cyclohexyl)-6-methylpyrido[3,4-d]pyrimidin-2-amine]
3 | < 0.2 µM | < 0.2 µM | < 0.2 µM | < 0.2 µM | > 2 µM | > 2 µM | Cc1cc2cnc(NC3CCN(S(C)(=O)=O)CC3)nc2c(N2CCC3(C2)CC3(F)F)n1 (stereo not drawn) [Compound 41, 8-(1,1-difluoro-5-azaspiro[2.4]heptan-5-yl)-6-methyl-N-(1-(methylsulfonyl)piperidin-4-yl)pyrido[3,4-d]pyrimidin-2-amine]
4 | 0.5 to 2 µM | > 2 µM | < 0.2 µM | 0.2 to 0.5 µM | 0.5 to 2 µM | 0.5 to 2 µM | Cc1cc2cnc(NC3CC4CC3CN4C)nc2c(N2CCC3(C2)CC3(F)F)n1 (stereo not drawn) [Compound 43, 8-(1,1-difluoro-5-azaspiro[2.4]heptan-5-yl)-6-methyl-N-(2-methyl-2-azabicyclo[2.2.1]heptan-5-yl)pyrido[3,4-d]pyrimidin-2-amine]
5 | > 2 µM | > 2 µM | 0.2 to 0.5 µM | 0.5 to 2 µM | > 2 µM | > 2 µM | Cc1cc2cnc(Nc3ccc4c(c3)CN(C)C4)nc2c(N2CC3(C2)CN(C2CC2)C3)n1 [Compound 44, 8-(6-cyclopropyl-2,6-diazaspiro[3.3]heptan-2-yl)-6-methyl-N-(2-methylisoindolin-5-yl)pyrido[3,4-d]pyrimidin-2-amine]
6 | > 2 µM | 0.001 µM | < 0.2 µM | 0.5 to 2 µM | > 2 µM | > 2 µM | Cc1cc2cnc(N[C@H]3CC[C@@H](CN(C)C)CC3)nc2c(N2CCC3(C2)CC3(F)F)n1 (stereo partly drawn) [Compound 45, 8-(1,1-difluoro-5-azaspiro[2.4]heptan-5-yl)-N-((1s,4s)-4-((dimethylamino)methyl)cyclohexyl)-6-methylpyrido[3,4-d]pyrimidin-2-amine]
7 | < 0.2 µM | 0.5 to 2 µM | < 0.2 µM | < 0.2 µM | 0.5 to 2 µM | 0.5 to 2 µM | Cc1cc2cnc(Nc3ccc4c(c3)CN(C3CC3)C4)nc2c(N2CC3(CCNC3)C2)n1 [Compound 47, N-(2-cyclopropylisoindolin-5-yl)-6-methyl-8-(2,6-diazaspiro[3.4]octan-2-yl)pyrido[3,4-d]pyrimidin-2-amine]
8 | < 0.2 µM | 0.5 to 2 µM | < 0.2 µM | 0.2 to 0.5 µM | > 2 µM | > 2 µM | Cc1cc2cnc(NC3CCN(S(=O)(=O)C4CC4)CC3)nc2c(N2CC3(C2)CN(C2CC2)C3)n1 [Compound 48, 8-(6-cyclopropyl-2,6-diazaspiro[3.3]heptan-2-yl)-N-(1-(cyclopropylsulfonyl)piperidin-4-yl)-6-methylpyrido[3,4-d]pyrimidin-2-amine]
9 | < 0.2 µM | 0.5 to 2 µM | < 0.2 µM | 0.2 to 0.5 µM | 0.5 to 2 µM | 0.5 to 2 µM | Cc1cc2cnc(NC3CCN(S(=O)(=O)C4CC4)CC3)nc2c(N2CC3(CCN(C)C3)C2)n1 [Compound 49, N-(1-(cyclopropylsulfonyl)piperidin-4-yl)-6-methyl-8-(6-methyl-2,6-diazaspiro[3.4]octan-2-yl)pyrido[3,4-d]pyrimidin-2-amine]
10 | < 0.2 µM | 0.5 to 2 µM | < 0.2 µM | < 0.2 µM | 0.5 to 2 µM | 0.5 to 2 µM | FC(F)c1cc2cnc(Nc3ccc4c(c3)CN(C3CC3)C4)nc2c(N2CC3(CCNC3)C2)n1 [Compound 50, N-(2-cyclopropylisoindolin-5-yl)-6-(difluoromethyl)-8-(2,6-diazaspiro[3.4]octan-2-yl)pyrido[3,4-d]pyrimidin-2-amine]
11 | < 0.2 µM | < 0.2 µM | < 0.2 µM | < 0.2 µM | > 2 µM | 0.5 to 2 µM | Cc1cc2cnc(NC3CCN(S(C)(=O)=O)CC3)nc2c(N2CCC3(CCC3(F)F)C2)n1 (stereo not drawn) [Compound 52, 8-(1,1-difluoro-6-azaspiro[3.4]octan-6-yl)-6-methyl-N-(1-(methylsulfonyl)piperidin-4-yl)pyrido[3,4-d]pyrimidin-2-amine]
12 | < 0.2 µM | > 2 µM | < 0.2 µM | < 0.2 µM | > 2 µM | > 2 µM | Cc1cc2cnc(NC3CCN(S(C)(=O)=O)CC3)nc2c(N2CCC3(C2)CC(F)(F)C3)n1 [Compound 53, 8-(2,2-difluoro-6-azaspiro[3.4]octan-6-yl)-6-methyl-N-(1-(methylsulfonyl)piperidin-4-yl)pyrido[3,4-d]pyrimidin-2-amine]
13 | < 0.2 µM | < 0.2 µM | < 0.2 µM | < 0.2 µM | > 2 µM | 0.5 to 2 µM | Cc1cc2cnc(NC3CCN(S(C)(=O)=O)CC3)nc2c(N2CCC3(CC3)C2)n1 [Compound 54, 6-methyl-N-(1-(methylsulfonyl)piperidin-4-yl)-8-(5-azaspiro[2.4]heptan-5-yl)pyrido[3,4-d]pyrimidin-2-amine]
14 | < 0.2 µM | < 0.2 µM | < 0.2 µM | < 0.2 µM | 0.2 to 0.5 µM | 0.5 to 2 µM | O=S(=O)(CC1CCC1)N1CCC(Nc2ncc3cc(C(F)F)nc(N4CC5(CCNC5)C4)c3n2)CC1 [Compound 55, N-(1-((cyclobutylmethyl)sulfonyl)piperidin-4-yl)-6-(difluoromethyl)-8-(2,6-diazaspiro[3.4]octan-2-yl)pyrido[3,4-d]pyrimidin-2-amine]
15 | < 0.2 µM | < 0.2 µM | < 0.2 µM | < 0.2 µM | 0.5 to 2 µM | 0.5 to 2 µM | Cc1cc2cnc(NC3CCN(S(=O)(=O)C4CC4)CC3)nc2c(N2CC(O)(C3CC3)C2)n1 [Compound 56, 3-cyclopropyl-1-(2-((1-(cyclopropylsulfonyl)piperidin-4-yl)amino)-6-methylpyrido[3,4-d]pyrimidin-8-yl)azetidin-3-ol]
16 | < 0.2 µM | 0.2 to 0.5 µM | < 0.2 µM | < 0.2 µM | > 2 µM | > 2 µM | Cc1cc2cnc(NC3CCN(S(=O)(=O)C4CC4)CC3)nc2c(N2CC(OC3CC3)C2)n1 [Compound 57, 8-(3-cyclopropoxyazetidin-1-yl)-N-(1-(cyclopropylsulfonyl)piperidin-4-yl)-6-methylpyrido[3,4-d]pyrimidin-2-amine]
